In US7612211B2, “Benzimidazole TRPV1 inhibitors” (Janssen Pharmaceutica N.V., priority 2006, dated 2009) one finds inhibition and IC50 data, which are given here for 14 compounds.

The test deals with T1, hTRPV1 (Homo sapiens, UniProt Q8NER1).
T1 construct: expressed in transfected cells; host or cells: HEK293
Kind of test: Human TRPV1 (hTRPV1) functional assay, FLIPR intracellular Ca2+, capsaicin challenge. It counts as cell-based. The note with it: HEK293 cells expressing hTRPV1, capsaicin 0.030 μM challenge; for inhibition at 0.2 µM: test concentration of 0.2 μm, read-out: percent inhibition (symbol b); for IC50: derived from a variety of test concentrations, read-out: IC50 value (symbol c); for inhibition at 0.5 µM: test concentration of 0.5 μm, read-out: percent inhibition (symbol a). The protocol: The functional activity of the test compounds was determined by measuring changes in intracellular calcium concentration using a Ca^++-sensitive fluorescent dye and FLIPR™ technology. Increases in Ca^++ concentration were readily detected upon challenge with capsaicin.
HEK293 cells expressing hTRPV1 were grown on poly-D-lysine coated 384 well black-walled plates (BD 354663) and 1 day later loaded with Calcium 3 Dye for 35 min at 37° C., 5% CO2 and then for 25 min at room temperature, and subsequently tested for agonist-induced increases in intracellular Ca^2+ levels using FLIPR™ technology. Cells were challenged with test compounds (at varying concentrations) and intracellular Ca^2+ was measured for 5 min prior to the addition of capsaicin to all wells to achieve a final concentration of 0.030 μM eliciting ˜80% maximal response.
EC50 or IC50 values were determined from concentration-response studies, which were generated using the average of quadruplicate wells for each data point. The symbol “a” represents percent inhibition obtained at a test concentration of 0.5 μm; the symbol “b” represents percent inhibition obtained at a test concentration of 0.2 μm; the symbol “c” represents an IC50 value (nM) derived from a variety of test concentrations. The term “NA” means that the result is not applicable for a particular compound.

T1 sequence (Q8NER1 whole entry): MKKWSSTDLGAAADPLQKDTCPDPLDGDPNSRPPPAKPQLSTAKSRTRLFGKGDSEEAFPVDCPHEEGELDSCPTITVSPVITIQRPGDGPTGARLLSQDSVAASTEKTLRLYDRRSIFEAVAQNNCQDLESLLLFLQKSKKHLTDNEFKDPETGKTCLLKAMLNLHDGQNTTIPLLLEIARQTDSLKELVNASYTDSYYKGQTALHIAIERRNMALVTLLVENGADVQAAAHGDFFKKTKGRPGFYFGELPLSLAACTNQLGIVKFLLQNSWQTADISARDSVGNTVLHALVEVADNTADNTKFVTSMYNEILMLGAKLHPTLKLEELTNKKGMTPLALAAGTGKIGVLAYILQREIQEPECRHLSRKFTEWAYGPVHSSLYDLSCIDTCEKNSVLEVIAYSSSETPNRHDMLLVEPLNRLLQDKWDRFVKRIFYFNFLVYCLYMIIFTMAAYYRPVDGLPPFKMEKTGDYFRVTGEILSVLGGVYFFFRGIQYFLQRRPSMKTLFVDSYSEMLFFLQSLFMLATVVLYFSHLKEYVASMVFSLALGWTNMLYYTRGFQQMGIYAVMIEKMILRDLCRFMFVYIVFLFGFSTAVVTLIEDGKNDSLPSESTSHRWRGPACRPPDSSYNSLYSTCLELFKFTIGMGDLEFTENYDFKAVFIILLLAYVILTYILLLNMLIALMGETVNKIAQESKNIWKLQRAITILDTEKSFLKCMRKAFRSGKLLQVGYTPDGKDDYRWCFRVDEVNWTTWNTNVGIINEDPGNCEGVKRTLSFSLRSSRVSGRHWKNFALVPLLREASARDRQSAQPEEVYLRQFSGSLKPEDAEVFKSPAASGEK

Take `CS(=O)(=O)c1ccccc1-c1ccc2[nH]c(COc3ccc(F)c(Cl)c3)nc2c1` [Cpd 67, 2-(3-chloro-4-fluoro-phenoxymethyl)-5-(2-methanesulfonyl-phenyl)-1H-benzoimidazole]: the inhibition (in general, how much of the control response was suppressed) at 0.2 µM is 70%. As to `CNS(=O)(=O)c1ccccc1-c1ccc2[nH]c(COc3ccc(Cl)cc3)nc2c1` [Cpd 18, 2-[2-(4-chloro-phenoxymethyl)-1H-benzoimidazol-5-yl]-N-methyl-benzenesulfonamide], the IC50 (usually the concentration that gives 50% inhibition) was found to be 71 nM and the inhibition at 0.5 µM turned out to be 97%. Take `NS(=O)(=O)c1ccc(-c2ccc3[nH]c(COc4ccc(C(F)(F)F)cc4)nc3c2)cc1` [Cpd 105, 4-[2-(4-trifluoromethyl-phenoxymethyl)-1H-benzoimidazol-5-yl]-benzenesulfonamide]: the inhibition at 0.5 µM came to 7%. Turning to `CC(C)(O)c1ccccc1-c1ccc2[nH]c(COc3ccc(Cl)cc3)nc2c1` [Cpd 23, 2-{2-[2-(4-chloro-phenoxymethyl)-1H-benzoimidazol-5-yl]-phenyl}-propan-2-ol], the IC50 was 19 nM and the inhibition at 0.5 µM was 100%.

Turning to `CC(=O)Nc1ccc(-c2ccc3[nH]c(COc4ccc(C(F)(F)F)cc4)nc3c2)cc1` [Cpd 115, N-{4-[2-(4-trifluoromethyl-phenoxymethyl)-1H-benzoimidazol-5-yl]-phenyl}-acetamide], the inhibition at 0.5 µM came out at 14%. For `NS(=O)(=O)c1ccccc1-c1ccc2[nH]c(CSc3ccc(C(F)(F)F)cc3)nc2c1` [Cpd 41, 2-[2-(4-trifluoromethyl-phenylsulfanylmethyl)-1H-benzoimidazol-5-yl]-benzenesulfonamide], the IC50 came out at 4.9 nM and the inhibition at 0.2 µM amounted to 98%. As to `CS(=O)(=O)c1ccccc1-c1ccc2[nH]c(COc3ccc(C4CC4)cc3)nc2c1` [Cpd 167, 2-(4-cyclopropyl-phenoxymethyl)-5-(2-methanesulfonyl-phenyl)-1H-benzoimidazole], the IC50 stood at 7 nM and the inhibition at 0.2 µM came out at 98%. For `Cc1ccc(OCc2nc3cc(-c4ccccc4S(C)(=O)=O)ccc3[nH]2)c(C)c1` [Cpd 89, 2-(2,4-dimethyl-phenoxymethyl)-5-(2-methanesulfonyl-phenyl)-1H-benzoimidazole], in that order: 52 nM and 90%. As to `CC(O)c1ccc(-c2ccc3[nH]c(COc4ccc(C(F)(F)F)cc4)nc3c2)cc1` (centres unmarked) [Cpd 112, 1-{4-[2-(4-trifluoromethyl-phenoxymethyl)-1H-benzoimidazol-5-yl]-phenyl}-ethanol], the inhibition at 0.5 µM was determined as 1%.

With `NS(=O)(=O)c1ccccc1-c1ccc2[nH]c(COc3ccc4ncccc4c3)nc2c1` [Cpd 37, 2-[2-(quinolin-6-yloxymethyl)-1H-benzoimidazol-5-yl]-benzenesulfonamide], the inhibition at 0.5 µM came to 50%.

In the case of `NS(=O)(=O)c1cccc(-c2ccc3[nH]c(COc4ccc(C(F)(F)F)cc4)nc3c2)c1` [Cpd 104, 3-[2-(4-trifluoromethyl-phenoxymethyl)-1H-benzoimidazol-5-yl]-benzenesulfonamide], the inhibition at 0.5 µM is 8%. As for `NS(=O)(=O)c1ccccc1-c1ccc2[nH]c(COc3ccc4ccccc4c3)nc2c1` [Cpd 36, 2-[2-(naphthalen-2-yloxymethyl)-1H-benzoimidazol-5-yl]-benzenesulfonamide], the IC50 was found to be 32 nM and the inhibition at 0.5 µM stood at 98%. In the case of `CN(C)S(=O)(=O)c1cccc(-c2ccc3[nH]c(COc4ccc(C(F)(F)F)cc4)nc3c2)c1` [Cpd 128, N,N-dimethyl-3-[2-(4-trifluoromethyl-phenoxymethyl)-1H-benzoimidazol-5-yl]-benzenesulfonamide], the inhibition at 0.5 µM is 13%. With `CS(=O)(=O)c1ccccc1-c1ccc2[nH]c(COc3cc(C(F)(F)F)cc(C(F)(F)F)c3)nc2c1` [Cpd 73, 2-(3,5-bis-trifluoromethyl-phenoxymethyl)-5-(2-methanesulfonyl-phenyl)-1H-benzoimidazole], the inhibition at 0.2 µM was found to be 33%.
